These results are taken from patent US9204653B2, “5-fluoro pyrimidine derivatives” (DOW AGROSCIENCES LLC, priority 2008, dated 2015).

Each structure is given as a SMILES string. Values joined by “and” are separate entries in the source; they are usually repeats but may differ in a detail not shown here. Identical values can stand only once. Like-named read-outs stand apart in the source and are kept apart here.

The subject of test [1] is Mycosphaerella fijiensis; BAYER Code MYCOFI. The test can be described thus: Black Sigatoka disease of banana. In kind it is in vivo, Mycosphaerella fijiensis on field grown banana plants. Conditions: % disease control rating, banana leaves, natural inoculum. The protocol:
5. Evaluation of Fungicidal Activity: Black Sigatoka Disease of Banana (Mycosphaerella fijiensis; BAYER Code MYCOFI): […] The leaves were subsequently allowed to become infected by natural inoculum, and were visually assessed for percent disease control ˜40-45 days later. The following tables present the activity of typical compounds of the present disclosure when evaluated in these experiments. The effectiveness of the test compounds in controlling disease was determined by assessing the severity of disease on treated plants, then converting the severity to percent control based on the level of disease on untreated, inoculated plants. In each case of Tables I-V the rating scale is as follows: […]

The test system of test [2] is Mycosphaerella graminicola; Anamorph: Septoria tritici; Bayer Code SEPTTR. The test can be described thus: Leaf blotch of wheat, foliar fungicide treatment, one day protectant (1DP) or three day curative (3DC). Particulars: Zymoseptoria tritici, percent disease control rating. In kind it is in vivo, Septoria tritici on wheat plants (variety Yuma).
Test [3] deals with Venturia inaequalis; Bayer Code VENTIN. The test can be described thus: Apple scab. The class given is in vivo. Particulars: 24 h, % disease control rating, one day protectant; for pest or weed control at 25 ppm: read-out: VENTIN 1 DP 25 ppm; for pest or weed control at 75 ppm: read-out: VENTIN 1 DP 75 ppm.
The subject of test [4] is Cercospora beticola; Bayer Code CERCBE. The test can be described thus: Leaf spot of sugar beets. In kind it is in vivo, Cercospora beticola on sugar beets (variety HH-88). Particulars: 24 h, % disease control rating, one day protectant.
Test [5] concerns Mycosphaerella graminicola; Anamorph: Septoria tritici; Bayer Code SEPTTR. The test can be described thus: Fungicidal activity as a seed treatment: leaf blotch of wheat. The class given is in vivo, Septoria tritici on wheat variety Yuma. Conditions: for % Control (SEPTTR, seed treatment): 10% SC formulation; for Pot 1 to Pot 8 values (SEPTTR disease severity on treated plants): single pots, 8 replicates. The source says: 6. Evaluation of Fungicidal Activity as a Seed Treatment: Leaf Blotch of Wheat (Mycosphaerella graminicola; Anamorph: Septoria tritici; Bayer Code […]) […] Seeds (10 seeds/pot) were planted in 1 inch pot containing 50% mineral soil/50% soil-less Metro mix. 8-day old seedlings were inoculated with an aqueous spore suspension of Septoria tritici, and 8 pots of plants were inoculated for each fungicide rate. After inoculation, plants were kept in 100% relative humidity (one day in a dark dew chamber followed by two days in a lighted mist room) to allow establishment of infection. The plants were then transferred to a greenhouse for disease to develop. When infection levels on untreated plants reached 95 to 100%, disease severities on treated plants were assessed. […] The following tables present the activity of typical compounds of the present disclosure when evaluated in these experiments. The effectiveness of the test compounds in controlling disease was determined by assessing the severity of disease on treated plants, then converting the severity to percent control based on the level of disease on untreated, inoculated plants. In each case of Tables I-V the rating scale is as follows: […]

The mark [6] stands for this setting: 24 h, one day protectant (1DP), read-out: SETTTR 1DP 25 ppm.
Setting [7] is: 24 h, one day protectant (1DP), read-out: SEPTTR 1DP 100 ppm.
Where [8] appears, read: 72 h, three day curative (3DC), read-out: SEPTTR 3DC 25 ppm.
The mark [9] stands for this setting: 72 h, three day curative (3DC), read-out: SEPTTR 3DC 100 ppm.

In the case of `Nc1nc(OCc2ccc(F)cc2)ncc1F` [Compound 1, 5-Fluoro-2-(4-fluorobenzyloxy)pyrimidin-4-amine], the “MYCOFI 1 DP 50 ppm” value in test [1] (50 ppm) is recorded as “C (26-50)”. The “MYCOFI 1 DP 200 ppm” value in test [1] (200 ppm) is recorded as “B (51-75)”. Also, the pest or weed control at 25 ppm lay in the range of 76 to 100% in test [2] (setting [6]); 76 to 100% in test [2] (setting [8]); 76 to 100% in test [3]; 26 to 50% in test [4] (25 ppm, read-out: CERCBE 1 DP 25 ppm). Further, the pest or weed control at 100 ppm in test [2] (setting [7]) and in test [2] (setting [9]) was 76 to 100% each time. For the same compound, the pest or weed control at 75 ppm in test [3] was 76 to 100%; in test [4] (75 ppm, read-out: CERCBE 1 DP 75 ppm), 26 to 50%.

In the case of `Cc1ccc(COc2ncc(F)c(N)n2)cc1` [Compound 15], the pest or weed control at 25 ppm in test [2] (setting [6]), in test [2] (setting [8]) and in test [3] was 76 to 100% each time. Besides, the pest or weed control at 100 ppm in test [2] (setting [7]) and in test [2] (setting [9]) was 76 to 100% each time. For the same compound, the “control of SEPTTR via seed treatment (in words)” value in test [5] (lowest test rate of 1.48 g ai/100 kg seeds) is recorded as “nearly complete control”. The “% Control (SEPTTR, seed treatment)” value in test [5] (rate 1.48 g/100 kg seeds), in test [5] (rate 4.44 g/100 kg seeds), in test [5] (rate 13.3 g/100 kg seeds), in test [5] (rate 40 g/100 kg seeds) and in test [5] (rate 120 g/100 kg seeds) was “A (76-100)” in each case. Moreover, the “Pot 1 to Pot 8 values (SEPTTR disease severity on treated plants)” value in test [5] (rate 1.48 g/100 kg seeds) is 3% (3×) and 1% (2×) and 0% (3×); in test [5] (rate 4.44 g/100 kg seeds), 0% (5×) and 1% (3×); in test [5] (rate 13.3 g/100 kg seeds), 0% (4×) and 1% (4×); in test [5] (rate 40 g/100 kg seeds), 0% (5×) and 1% (3×); in test [5] (rate 120 g/100 kg seeds), 0%. Besides, the pest or weed control at 75 ppm in test [3] was 76 to 100%.
